Source: patent US10278957B2, “Opioid agonist peptides and uses thereof” (Protagonist Therapeutics, Inc., priority 2017, dated 2019)
Square brackets hold non-standard residues; d marks the D form. Peptide text beside a SMILES is read from it. Phe(3,4-(OMe)2) = COc1ccc(C[C@H](N)C(=O)O)cc1OC; Phe(3,4-Cl2) = N[C@@H](Cc1ccc(Cl)c(Cl)c1)C(=O)O; Phe(4-tBu) = CC(C)(C)c1ccc(C[C@H](N)C(=O)O)cc1; Bip = N[C@@H](Cc1ccc(-c2ccccc2)cc1)C(=O)O; Dip = N[C@H](C(=O)O)C(c1ccccc1)c1ccccc1; Phe(4-F) = N[C@@H](Cc1ccc(F)cc1)C(=O)O; Dmt = Cc1cc(O)cc(C)c1C[C@H](N)C(=O)O; dNMeF = CN[C@H](Cc1ccccc1)C(=O)O; hPhe = N[C@@H](CCc1ccccc1)C(=O)O; αMeF = C[C@](N)(Cc1ccccc1)C(=O)O; Tic = O=C(O)[C@@H]1Cc2ccccc2CN1; β3hF = N[C@H](CC(=O)O)Cc1ccccc1; N(octyl)Gly = CCCCCCCCNCC(=O)O; Nle = CCCC[C@H](N)C(=O)O; Sar = CNCC(=O)O

Target: T1, δ-opioid receptor (DOR) (Homo sapiens, UniProt P41143)
T1 construct: host or cells: cAMP Hunter CHO-K1 OPRD1 Gαi cell line
Test: DOR agonist cAMP assay (HitHunter cAMP, forskolin-stimulated)
Type: cell-based
Method: The HitHunter® cAMP chemiluminescent assay kit (DiscoveRx, Cat# 90-0075 SM25) was used to detect cAMP production in cAMP Hunter™ Gαi cell lines over expressing either Human-ORPM1 (Discoverx, Catalog# 95-0107C2) or Human-ORPD1 (DiscoveRx, Catalog# 95-0108C2). Opioid agonist binding to the Gαi receptors inhibits the intracellular cAMP accumulation induced by forskolin, which activates adenylate cyclase and increases intracellular levels of cAMP.
Cells were cultured in media consisting of Ham's F-12 Nutrient Mix (Life Technologies, Catalog#31765035), 10% FBS (Life Technologies, Catalog# 16140-071), 4 mM GlutaMAX (Life Technologies, Catalog#35050-061), […] (Life Technologies), 100 ug/ml of Penn-Strep (Life Technologies) and 0.5 mg/ml Geneticin (Life Technologies, Catalog# 10131-027). The cultures were maintained at 37° C. under 5% CO2.
In preparation for cAMP assay, the cells were seeded at a density of 300,000 cells/ml in 100 ul of media/well in 96-well microplate. Wells that were designated for cAMP standards were left empty.
Opioid agonist serial dilutions were prepared in separate dilution plate (11-point series of 3× (3-fold) dilution) in Cell Assay buffer, including 3× forskolin for Gαi target. For Hunter CHO-K1 OPRM1 or CHO-K1 OPRD1 Gαi Cell Lines, the final forskolin concentration was 20 uM.
15 ul of each 3× opioid agonist serial dilution was added in the presence of forskolin in duplicate to the designated wells. The final concentration of each dilution was at 3× of the final screening concentration. The assay plate was incubated for 30 min, at 37° C. under 5% CO2.
Cellular cAMP concentrations were measured using the HitHunter cAMP Assay kit following the manufacturer's protocol. HitHunter cAMP assay is a gain-of-signal competitive immunoassay based on Enzyme Fragment Complementation (EFC) technology. The kit uses β-galactosidase (β-gal) enzyme split into Enzyme Donor (ED) and Enzyme Acceptor (EA). The cellular cAMP and ED-labelled cAMP compete for anti-cAMP antibody. […] When cellular cAMP level is high, it competes for the anti-cAMP antibody, thereby releasing ED-cAMP to complement with EA to produce a luminescent signal. The amount of signal is directly proportional to the amount of cAMP in cells and can be quantified using cAMP standards. The assay plates were read using a PerkinElmer Envision instrument to detect the chemiluminescence signal in each well (luminescence reader at 0.1 to 1 second/well). Data analysis was performed using Graphpad Prism 7.EC50 was calculated by nonlinear regression, using the four-parameter hill equation.

T1 sequence (P41143 whole entry): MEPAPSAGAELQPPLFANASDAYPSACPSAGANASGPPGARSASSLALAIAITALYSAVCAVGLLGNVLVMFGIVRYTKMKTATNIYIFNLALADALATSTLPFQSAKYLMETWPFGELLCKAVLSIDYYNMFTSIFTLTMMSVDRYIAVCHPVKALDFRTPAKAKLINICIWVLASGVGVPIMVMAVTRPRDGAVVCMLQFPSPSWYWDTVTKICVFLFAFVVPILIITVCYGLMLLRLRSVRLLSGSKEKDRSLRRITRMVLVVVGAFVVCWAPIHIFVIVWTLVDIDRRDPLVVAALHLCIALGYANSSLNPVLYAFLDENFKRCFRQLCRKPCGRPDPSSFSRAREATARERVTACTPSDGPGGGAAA

SMILES	EC50 [nM]
Cc1cc(O)cc(C)c1C[C@H](N)C(=O)N[C@H](CCCNC(=N)N)C(=O)N[C@@H](Cc1ccccc1)C(=O)N(C)[C@H](Cc1ccccc1)C(N)=O [compound 14] (H-[Dmt][dR]F[dNMeF]-NH2)	10 to 50
Cc1cc(O)cc(C)c1C[C@H](N)C(=O)N[C@H](CCCNC(=N)N)C(=O)N[C@@H](Cc1ccccc1)C(=O)N[C@@](C)(Cc1ccccc1)C(N)=O [compound 15] (H-[Dmt][dR]F[αMeF]-NH2)	1 to 10
Cc1cc(O)cc(C)c1C[C@H](N)C(=O)N[C@H](CCCNC(=N)N)C(=O)N[C@@H](Cc1ccccc1)C(=O)N[C@@H](Cc1ccc(F)cc1)C(N)=O [compound 16] (H-[Dmt][dR]F[Phe(4-F)]-NH2)	10 to 50
COc1ccc(C[C@H](NC(=O)[C@H](Cc2ccccc2)NC(=O)[C@@H](CCCNC(=N)N)NC(=O)[C@@H](N)Cc2c(C)cc(O)cc2C)C(N)=O)cc1OC [compound 17] (H-[Dmt][dR]F[Phe(3,4-(OMe)2)]-NH2)	1 to 10
Cc1cc(O)cc(C)c1C[C@H](N)C(=O)N[C@H](CCCNC(=N)N)C(=O)N[C@@H](Cc1ccccc1)C(=O)N[C@@H](CCc1ccccc1)C(N)=O [compound 18] (H-[Dmt][dR]F[hPhe]-NH2)	1 to 10
Cc1cc(O)cc(C)c1C[C@H](N)C(=O)N[C@H](CCCNC(=N)N)C(=O)N1Cc2ccccc2C[C@H]1C(=O)N(C)CC(N)=O [compound 21] (H-[Dmt][dR][Tic][Sar]-NH2)	> 200
Cc1cc(O)cc(C)c1C[C@H](N)C(=O)N[C@H](CCCNC(=N)N)C(=O)N[C@@H](Cc1ccc(Cl)c(Cl)c1)C(=O)N(C)CC(N)=O [compound 22] (H-[Dmt][dR][Phe(3,4-Cl2)][Sar]-NH2)	10 to 50
Cc1cc(O)cc(C)c1C[C@H](N)C(=O)N[C@H](CCCNC(=N)N)C(=O)N[C@@H](Cc1ccc(-c2ccccc2)cc1)C(=O)N(C)CC(N)=O [compound 23] (H-[Dmt][dR][Bip][Sar]-NH2)	< 1
Cc1cc(O)cc(C)c1C[C@H](N)C(=O)N[C@H](CCCNC(=N)N)C(=O)N[C@@H](Cc1ccc(C(C)(C)C)cc1)C(=O)N(C)CC(N)=O [compound 24] (H-[Dmt][dR][Phe(4-tBu)][Sar]-NH2)	> 200
COc1ccc(C[C@H](NC(=O)[C@@H](CCCNC(=N)N)NC(=O)[C@@H](N)Cc2c(C)cc(O)cc2C)C(=O)N(C)CC(N)=O)cc1OC [compound 25] (H-[Dmt][dR][Phe(3,4-(OMe)2)][Sar]-NH2)	> 200
Cc1cc(O)cc(C)c1C[C@H](N)C(=O)N[C@H](CCCNC(=N)N)C(=O)N[C@H](C(=O)N(C)CC(N)=O)C(c1ccccc1)c1ccccc1 [compound 26] (H-[Dmt][dR][Dip][Sar]-NH2)	> 200
CCCCCCCCN(CC(N)=O)C(=O)[C@H](Cc1ccccc1)NC(=O)[C@@H](CCCNC(=N)N)NC(=O)[C@@H](N)Cc1c(C)cc(O)cc1C [compound 27] (H-[Dmt][dR]F[N(octyl)Gly]-NH2)	50 to 200
CCCC[C@H](NC(=O)[C@H](Cc1ccccc1)NC(=O)[C@@H](CCCN=C(N)N)NC(=O)[C@@H](N)Cc1c(C)cc(O)cc1C)C(N)=O [compound 28] (H-[Dmt][dR]F[Nle]-NH2)	10 to 50
Cc1cc(O)cc(C)c1C[C@H](N)C(=O)N[C@H](CCCNC(=N)N)C(=O)N[C@@H](Cc1ccccc1)C(=O)N[C@@H](CC(C)C)C(N)=O [compound 29] (H-[Dmt][dR]FL-NH2)	10 to 50
Cc1cc(O)cc(C)c1C[C@H](N)C(=O)N[C@H](CCCNC(=N)N)C(=O)N[C@@H](Cc1ccccc1)C(=O)N[C@H](C(N)=O)C(C)C [compound 30] (H-[Dmt][dR]FV-NH2)	1 to 10
CCCC[C@H](NC(=O)[C@H](Cc1c[nH]c2ccccc12)NC(=O)[C@@H](CCCNC(=N)N)NC(=O)[C@@H](N)Cc1c(C)cc(O)cc1C)C(N)=O [compound 31] (H-[Dmt][dR]W[Nle]-NH2)	10 to 50
Cc1cc(O)cc(C)c1C[C@H](N)C(=O)N[C@H](CCCNC(=N)N)C(=O)NCC(=O)N[C@H](C(N)=O)C(c1ccccc1)c1ccccc1 [compound 33] (H-[Dmt][dR]G[Dip]-NH2)	> 200
Cc1cc(O)cc(C)c1C[C@H](N)C(=O)N[C@H](CCCNC(=N)N)C(=O)NCC(=O)N[C@@H](Cc1c[nH]c2ccccc12)C(N)=O [compound 34] (H-[Dmt][dR]GW-NH2)	10 to 50

SMILES	EC50 [nM]
Cc1cc(O)cc(C)c1C[C@H](N)C(=O)N[C@H](CCCNC(=N)N)C(=O)N(C)CC(=O)N[C@@H](Cc1c[nH]c2ccccc12)C(N)=O [compound 35] (H-[Dmt][dR][Sar]W-NH2)	> 200
Cc1cc(O)cc(C)c1C[C@H](N)C(=O)N[C@H](CCCNC(=N)N)C(=O)N[C@@H](Cc1ccccc1)C(=O)N[C@H](C(N)=O)C(c1ccccc1)c1ccccc1 [compound 36] (H-[Dmt][dR]F[Dip]-NH2)	10 to 50
Cc1cc(O)cc(C)c1C[C@H](N)C(=O)N[C@H](C)C(=O)NCC(=O)N[C@@H](Cc1ccc(F)cc1)C(=O)NCC(N)=O [compound 38]	< 1
Cc1cc(O)cc(C)c1C[C@H](N)C(=O)N[C@H](C)C(=O)NCC(=O)N[C@@H](Cc1ccc(C#N)cc1)C(=O)NCC(N)=O [compound 39]	< 1
Cc1cc(O)cc(C)c1C[C@H](N)C(=O)N[C@H](C)C(=O)NCC(=O)N1Cc2ccccc2C[C@H]1C(=O)NCC(N)=O [compound 40]	10 to 50
Cc1cc(O)cc(C)c1C[C@H](N)C(=O)N[C@H](C)C(=O)NCC(=O)N[C@@H](Cc1ccc(Cl)c(Cl)c1)C(=O)NCC(N)=O [compound 41]	< 1
Cc1cc(O)cc(C)c1C[C@H](N)C(=O)N[C@H](C)C(=O)NCC(=O)N[C@@H](CCc1ccccc1)C(=O)N(C)CC(N)=O [compound 47]	1 to 10
C[C@@H](NC(=O)[C@@H](N)Cc1ccc(O)cc1)C(=O)NCC(=O)N[C@H](CC(=O)N(C)CC(N)=O)Cc1ccccc1 [compound 62]	1 to 10
Cc1cc(O)cc(C)c1C[C@H](N)C(=O)N[C@H](C)C(=O)N(C)CC(=O)N[C@H](CC(=O)N(C)CC(N)=O)Cc1ccccc1 [compound 64]	50 to 200
Cc1cc(O)cc(C)c1C[C@H](N)C(=O)N[C@H](C)C(=O)N[C@H](C(=O)N[C@H](CC(=O)N(C)CC(N)=O)Cc1ccccc1)C(C)C [compound 69] (H-[Dmt][dA]V[β3hF][Sar]-NH2)	50 to 200
Cc1cc(C(N)=O)cc(C)c1C[C@H](N)C(=O)N[C@H](CC(=O)O)C(=O)NCC(=O)N[C@H](CC(=O)N(C)CC(N)=O)Cc1ccccc1 [compound 77]	< 1
Cc1cc(C(N)=O)cc(C)c1C[C@H](N)C(=O)N(C)[C@@H](CCCNC(=N)N)C(=O)NCC(=O)N[C@H](CC(=O)N(C)CC(N)=O)Cc1ccccc1 [compound 78]	50 to 200
CC(=O)N[C@@H](Cc1c(C)cc(O)cc1C)C(=O)N[C@H](C)C(=O)NCC(=O)N[C@H](CC(=O)N(C)CC(N)=O)Cc1ccccc1 [compound 86]	10 to 50
Cc1cc(O)cc(C)c1C[C@H](N)C(=O)N[C@@H](C)C(=O)NCC(=O)N[C@H](CC(=O)N(C)CC(=O)O)Cc1ccccc1 [compound 88]	10 to 50
Cc1cc(O)cc(C)c1C[C@H](N)C(=O)N(C)[C@@H](CCCNC(=N)N)C(=O)NCC(=O)N[C@H](CC(=O)N(C)CC(N)=O)Cc1ccccc1 [compound 91]	50 to 200
Cc1cc(O)cc(C)c1C[C@H](N)C(=O)N[C@H](C)C(=O)NCC(=O)N1Cc2ccccc2C[C@H]1C(=O)N(C)CC(N)=O [compound 107]	10 to 50
CCCCCCCCN(CC(N)=O)C(=O)C[C@H](Cc1ccccc1)NC(=O)CNC(=O)[C@@H](C)NC(=O)[C@@H](N)Cc1c(C)cc(O)cc1C [compound 115]	10 to 50
